Experimental data as given in patent US6403594B1, “Benzopyran derivatives” (Recordati, S.A. Chemical and Pharmaceutical Company, priority 1999, dated 2002).
Where a name gives a salt, the structure may show the parent alone.

Key:
[1] = molecular target: T1, α1a-adrenoceptor (recombinant) (Homo sapiens, UniProt P35348); experiment: Radioligand binding, cloned α1a-adrenoceptor ([3H]prazosin); settings: read-out: Affinity for recombinant α1a-adrenoceptor, cloned receptors (Ki)
T1 construct: expressed in transfected cells
T1 sequence (P35348 1-466): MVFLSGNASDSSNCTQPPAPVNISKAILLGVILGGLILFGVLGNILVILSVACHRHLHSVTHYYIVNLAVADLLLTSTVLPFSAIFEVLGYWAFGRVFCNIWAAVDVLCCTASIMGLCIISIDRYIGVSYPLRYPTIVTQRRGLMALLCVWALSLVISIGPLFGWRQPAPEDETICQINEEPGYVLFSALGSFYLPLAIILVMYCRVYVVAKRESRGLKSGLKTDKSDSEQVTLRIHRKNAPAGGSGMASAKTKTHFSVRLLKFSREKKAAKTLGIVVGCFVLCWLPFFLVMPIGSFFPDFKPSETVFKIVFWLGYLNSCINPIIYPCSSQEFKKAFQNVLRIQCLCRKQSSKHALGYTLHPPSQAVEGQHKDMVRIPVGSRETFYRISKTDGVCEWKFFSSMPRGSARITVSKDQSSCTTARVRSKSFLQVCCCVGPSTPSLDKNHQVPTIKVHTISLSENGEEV
Protocol: (§1) Determination of affinity for cloned subtypes of α1-adrenoceptor subtypes was performed in membranes from cells transfected by electroporation with DNA expressing the genes encoding each α1-adrenoceptor subtype.
(§2) Non-specific binding was determined in the presence of 10 μM phentolamine.
(§3) Incubation was stopped by addition of ice-cold Tris buffer and rapid filtration through 0.2% polyethyleneimine-pretreated Schleicher & Schuell GF52 filters.
(§4) Data were expressed as mean Ki.

[2] = molecular target: T2, α1b-adrenoceptor (recombinant) (Homo sapiens, UniProt P35368); experiment: Radioligand binding, cloned α1b-adrenoceptor ([3H]prazosin); settings: read-out: Affinity for recombinant α1b-adrenoceptor, cloned receptors (Ki)
T2 construct: expressed in transfected cells
T2 sequence (P35368 1-520): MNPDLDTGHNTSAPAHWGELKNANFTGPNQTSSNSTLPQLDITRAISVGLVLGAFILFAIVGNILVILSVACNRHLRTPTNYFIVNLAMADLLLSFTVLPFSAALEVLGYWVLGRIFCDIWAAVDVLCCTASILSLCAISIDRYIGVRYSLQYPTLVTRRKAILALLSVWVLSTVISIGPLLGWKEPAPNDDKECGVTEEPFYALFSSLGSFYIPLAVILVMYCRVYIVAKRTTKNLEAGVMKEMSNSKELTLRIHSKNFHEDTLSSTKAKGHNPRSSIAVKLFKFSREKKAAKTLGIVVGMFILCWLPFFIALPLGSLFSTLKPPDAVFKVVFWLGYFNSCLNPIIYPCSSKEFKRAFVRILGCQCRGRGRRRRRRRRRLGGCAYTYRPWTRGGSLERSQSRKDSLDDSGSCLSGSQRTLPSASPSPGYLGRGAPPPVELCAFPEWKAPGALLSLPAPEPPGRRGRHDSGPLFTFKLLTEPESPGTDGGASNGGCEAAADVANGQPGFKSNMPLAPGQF
Protocol: as §1, §2, §3, §4

[3] = molecular target: T3, 5HT1A-serotoninergic receptor (Homo sapiens, UniProt P08908); experiment: Radioligand binding, cloned 5-HT1A-serotoninergic receptor in HeLa membranes ([3H]8-OH-DPAT); parameters: expressed in transfected cells; host or cells: HeLa; settings: cloned human 5-HT1A receptor in HeLa membranes, mean Ki, read-out: Affinity for 5-HT1A receptor, cloned receptors (Ki)
T3 sequence (P08908 1-422): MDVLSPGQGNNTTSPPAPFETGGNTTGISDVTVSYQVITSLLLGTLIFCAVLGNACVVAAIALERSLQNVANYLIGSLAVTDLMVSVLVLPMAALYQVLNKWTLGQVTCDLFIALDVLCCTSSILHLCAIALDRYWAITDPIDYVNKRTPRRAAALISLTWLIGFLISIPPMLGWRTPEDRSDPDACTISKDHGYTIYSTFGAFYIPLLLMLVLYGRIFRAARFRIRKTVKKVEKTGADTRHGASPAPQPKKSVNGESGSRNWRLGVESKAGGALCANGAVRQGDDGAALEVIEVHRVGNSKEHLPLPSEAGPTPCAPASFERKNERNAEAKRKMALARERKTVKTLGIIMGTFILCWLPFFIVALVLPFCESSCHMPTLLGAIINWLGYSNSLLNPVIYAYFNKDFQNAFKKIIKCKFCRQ
Protocol: HeLa cells were grown as monolayers in Dulbecco's Modified Eagle medium (DMEM) supplemented with 10% foetal calf serum and gentamicin (100 μg/mL), 5% CO2, at 37° C. The cells were detached from the growth flask at 95% confluence by a cell scraper and were lysed in ice-cold Tris-5-mM and EDTA-5-mM buffer (pH 7.4). The homogenates were centrifuged at 40000×g×20 minutes and the membranes were resuspended in a small volume of ice-cold buffer containing Tris 5 mM and EDTA 5 mM (pH 7.4), and immediately frozen and stored at −70° C. until use.
Non-specific binding was determined in the presence of 10 μM 5-HT. The incubation was stopped by addition of ice-cold Tris buffer and rapid filtration through 0.2% polyethyleneimine-pretreated Schleicher & Schuell filters.
as §4

[4] = molecular target: T4, α1d-adrenoceptor (recombinant) (Homo sapiens, UniProt P25100); experiment: Radioligand binding, cloned α1d-adrenoceptor ([3H]prazosin); settings: read-out: Affinity for recombinant α1d-adrenoceptor, cloned receptors (Ki)
T4 sequence (P25100 1-572): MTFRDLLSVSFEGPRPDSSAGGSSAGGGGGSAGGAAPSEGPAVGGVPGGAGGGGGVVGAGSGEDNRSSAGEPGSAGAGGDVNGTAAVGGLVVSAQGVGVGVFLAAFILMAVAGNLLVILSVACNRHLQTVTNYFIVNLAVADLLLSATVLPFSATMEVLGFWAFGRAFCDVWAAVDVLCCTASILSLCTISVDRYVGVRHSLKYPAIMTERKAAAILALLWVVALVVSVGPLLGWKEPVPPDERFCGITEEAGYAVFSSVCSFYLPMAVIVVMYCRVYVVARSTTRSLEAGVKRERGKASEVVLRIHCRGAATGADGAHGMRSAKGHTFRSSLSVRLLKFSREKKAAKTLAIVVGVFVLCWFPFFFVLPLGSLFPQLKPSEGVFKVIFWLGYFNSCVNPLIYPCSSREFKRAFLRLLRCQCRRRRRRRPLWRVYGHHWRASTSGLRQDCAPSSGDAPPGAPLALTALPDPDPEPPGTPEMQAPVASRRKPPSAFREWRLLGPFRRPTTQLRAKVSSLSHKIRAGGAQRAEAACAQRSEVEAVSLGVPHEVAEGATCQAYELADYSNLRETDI
Protocol: as §1, §2, §3, §4

α1L adrenoceptor = molecular target: T5, α1L adrenoceptor (Oryctolagus cuniculus, UniProt O02824); experiment: Functional antagonism of noradrenaline-induced contractions of rabbit aorta pretreated with chloroethylclonidine; type: biochemical; settings: NA-induced contractions of rabbit aorta pretreated with chloroethylclonidine
T5 sequence (O02824 1-466): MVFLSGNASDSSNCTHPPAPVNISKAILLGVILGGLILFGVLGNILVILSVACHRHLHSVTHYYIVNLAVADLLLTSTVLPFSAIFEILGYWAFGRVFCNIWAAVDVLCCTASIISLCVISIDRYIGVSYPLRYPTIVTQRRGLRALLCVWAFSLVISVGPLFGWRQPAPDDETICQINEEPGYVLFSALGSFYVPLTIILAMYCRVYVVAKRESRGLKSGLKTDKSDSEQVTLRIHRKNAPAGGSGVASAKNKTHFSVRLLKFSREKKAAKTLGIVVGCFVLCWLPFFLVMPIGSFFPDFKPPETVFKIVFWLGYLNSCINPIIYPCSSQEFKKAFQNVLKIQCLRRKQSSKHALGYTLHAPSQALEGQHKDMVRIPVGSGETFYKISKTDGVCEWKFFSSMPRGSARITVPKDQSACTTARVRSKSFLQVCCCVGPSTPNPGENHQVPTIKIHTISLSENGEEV
Protocol: Adult male New Zealand rabbits were sacrificed by cervical dislocation. The aorta was removed, placed in Krebs-Henseleit buffer and dissected free of adhering tissue. […] Desmethylimipramine (0.1 μm) and corticosterone (1 μM) to block neuronal and extraneuronal uptake of NA, (±)-propranol (1 μM) to block β adrenoceptors and yohimbine (0.1 μM) to block α2 adrenoceptors, were added to the buffer.
The preparations were allowed to equilibrate for 60 minutes and then primed every thirty minutes with 10 μM NA for three times. The aortic rings were then incubated with the alkylating agent chloroethylclonidine (5×10^−5 M) for 30 minutes and then washed extensively three times (in 0.5 hours) before constructing the NA-concentration/response curve. After washout of NA and re-equilibration of the tissue (45 minutes), the drug to be tested was added and, after 30 minutes, a second NA-cumulative-concentration/response curve constructed.
Each antagonist concentration was tested using 2-3 aortic rings from different rabbits.
Dose ratios (i.e., the ratio between the concentrations of NA required to produce half-maximal response in the presence and in the absence of the test antagonist) were calculated for each concentration of the compounds. The logarithm of these dose ratio-1 was plotted against the logarithm of the compound concentrations (Schild plot) to evaluate the affinity constant Kb.
When only one or two concentrations of the test compounds were utilised, the apparent Kb value was calculated using the formula: Kb=[B]/(DOSE RATIO-1), where B is the antagonist concentration.

SMILES	Ki [1]	Ki [2]	Ki [3]	Ki [4]	Functional affinity for the α1L adrenoceptor subtype, pKb (α1L adrenoceptor)
Cc1c(-c2ccccc2)oc2c(C(=O)NCCCN3CCN(c4cc(Cl)ccc4OS(=O)(=O)C(F)(F)F)CC3)cccc2c1=O [Example 24, 8-{3-[4-(5-Chloro-2-trifluoromethanesulphonyloxyphenyl)-1-piperazinyl]-propylcarbamoyl}-3-methyl-4-oxo-2-phenyl-4H-1-benzopyran hydrochloride]	4.21 nM	7.8 nM	140 nM	33.7 nM	–
COc1cc2nc(N3CCN(C(=O)C4CCCO4)CC3)nc(N)c2cc1OC (stereo not shown) [terazosin, reference compound]	–	–	–	2.4 nM	7.25
COc1ccc(Cl)cc1N1CCN(CCCNC(=O)c2cccc3c(=O)c(C)c(C(C)=O)oc23)CC1 [Example 2, 2-Acetyl-8-{3-[4-(5-chloro-2-methoxyphenyl)-1-piperazinyl]propylcarbamoyl}-3-methyl-4-oxo-4H-1-benzopyran]	0.32 nM	2.34 nM	12.3 nM	2.68 nM	–
CNC(=O)c1oc2c(C(=O)NCCCN3CCN(c4cc(Cl)ccc4OC)CC3)cccc2c(=O)c1C [Example 5, 8-{3-[4-(5-Chloro-2-methoxyphenyl)-1-piperazinyl]propylcarbamoyl}-3-methyl-2-methylcarbamoyl-4-oxo-4H-1-benzopyran]	0.57 nM	2.39 nM	23.1 nM	2.05 nM	–
Cc1c(C(N)=O)oc2c(C(=O)NCCCN3CCN(c4ccc(F)cc4OCC(F)(F)F)CC3)cccc2c1=O [Example 7, 2-Carbamoyl-8-<3-{4-[4-fluoro-2-(2,2,2-trifluoroethoxy)phenyl]-1-piperazinyl}-propylcarbamoyl>-3-methyl-4-oxo-4H-1-benzopyran]	1.01 nM	–	12.8 nM	6.43 nM	–

Now from value to compound, other results behind:

Ki [1]	Ki [2]	Ki [3]	Ki [4]	SMILES	Functional affinity for the α1L adrenoceptor subtype, pKb (α1L adrenoceptor)
1.61 nM	1 nM	31.4 nM	11 nM	Cc1c(C(N)=O)oc2c(C(=O)NCCCN3CCN(c4cc(Cl)ccc4OS(=O)(=O)C(F)(F)F)CC3)cccc2c1=O [Example 13, 2-Carbamoyl-8-{3-[4-(5-chloro-2-trifluoromethanesulphonyloxyphenyl)-1-piperazinyl]propylcarbamoyl}-3-methyl-4-oxo-4H-1-benzopyran]	–
0.173 nM	14.3 nM	5.54 nM	6.53 nM	Cc1c(C(N)=O)oc2c(C(=O)NCCCN3CCN(c4ccccc4OCC(F)(F)F)CC3)cccc2c1=O [Example 10, 2-Carbamoyl-8-<3-{4-[2-(2,2,2-trifluoroethoxy)phenyl]-1-piperazinyl}-propylcarbamoyl>-3-methyl-4-oxo-4H-1-benzopyran]	–
28.6 nM	94.7 nM	–	467 nM	COc1ccc(OCC(F)(F)F)cc1N1CCN(CCCNC(=O)c2cccc3c(=O)c(C)c(C(N)=O)oc23)CC1 [Example 9, 2-Carbamoyl-8-<3-{4-[2-methoxy-5-(2,2,2-trifluoroethoxy)phenyl]-1-piperazinyl}-propylcarbamoyl>-3-methyl-4-oxo-4H-1-benzopyran]	–
1.15 nM	2.02 nM	4.16 nM	9.96 nM	Cc1c(C(N)=O)oc2c(C(=O)NCCCN3CCN(c4cc(Cl)ccc4O)CC3)cccc2c1=O [Example 12, 2-Carbamoyl-8-{3-[4-(5-chloro-2-hydroxyphenyl)-1-piperazinyl]-propylcarbamoyl}-3-methyl-4-oxo-4H-1-benzopyran]	–
0.07 nM	3.54 nM	4.46 nM	0.32 nM	Cc1c(-c2ccccc2)oc2c(C(=O)NCCCN3CCN(c4cc(F)ccc4OCC(F)(F)F)CC3)cccc2c1=O [Example 20, 8-<3-{4-[5-Fluoro-2-(2,2,2-trifluoroethoxy)phenyl]-1-piperazinyl}-propylcarbamoyl>-3-methyl-4-oxo-2-phenyl-4H-1-benzopyran]	–
2.54 nM	31.6 nM	257 nM	34.7 nM	COc1ccc(OCC(F)(F)F)cc1N1CCN(CCCNC(=O)c2cccc3c(=O)c(C)c(-c4ccccc4)oc23)CC1 [Example 21, 8-<3-{4-[2-Methoxy-5-(2,2,2-trifluoroethoxy)phenyl]-1-piperazinyl}-propylcarbamoyl>-3-methyl-4-oxo-2-phenyl-4H-1-benzopyran]	–
